Paper PMC11033320, “Activation of p53 signaling and regression of breast and prostate carcinoma cells by spirooxindole-benzimidazole small molecules” (Frontiers in Pharmacology, 2024)

Assays:
SF-268 = test: NCI anticancer screening, CNS Cancer SF-268; type: cell-based; conditions: Homo sapiens; SF-268, 10 μM; read-out: % Growth Inhibition (GI %)
From the text: (§1) The compound has been processed according to standard method NCI-60 Human Tumor Cell Lines Screen for organic compound at development therapeutic program (DTP). Requests for access to this national resource can be submitted online at: […]

CCRF-CEM = test: NCI anticancer screening, Leukemia CCRF-CEM; type: cell-based; conditions: Homo sapiens, read-out: % Growth Inhibition (GI %)
From the text: as §1

PC-3 cells = test: MTT assay anticancer activity, PC-3; type: cell-based; conditions: Homo sapiens, PC-3, 5 µM, mean ± SEM, read-out: growth inhibition percentage of PC-3
From the text: MTT method was done as described above.

UACC-257 = test: NCI anticancer screening, Melanoma UACC-257; type: cell-based; conditions: Homo sapiens; UACC-257, 10 μM; read-out: % Growth Inhibition (GI %)
From the text: as §1

MOLT-4 = test: NCI anticancer screening, Leukemia MOLT-4; type: cell-based; conditions: Homo sapiens; MOLT-4, 10 μM; read-out: % Growth Inhibition (GI %)
From the text: as §1

HCC-2998 = test: NCI anticancer screening, Colon Cancer HCC-2998; type: cell-based; conditions: Homo sapiens; HCC-2998, 10 μM; read-out: % Growth Inhibition (GI %)
From the text: as §1

SNB-75 = test: NCI anticancer screening, CNS Cancer SNB-75; type: cell-based; conditions: Homo sapiens; SNB-75, 10 μM; read-out: % Growth Inhibition (GI %)
From the text: as §1

HOP-62 = test: NCI anticancer screening, Non-Small Cell Lung Cancer HOP-62; type: cell-based; conditions: Homo sapiens; HOP-62, 10 μM; read-out: % Growth Inhibition (GI %)
From the text: as §1

OVCAR-4 = test: NCI anticancer screening, Ovarian Cancer OVCAR-4; type: cell-based; conditions: Homo sapiens; OVCAR-4, 10 μM; read-out: % Growth Inhibition (GI %)
From the text: as §1

UO-31 = test: NCI anticancer screening, Renal Cancer UO-31; type: cell-based; conditions: Homo sapiens; UO-31, 10 μM; read-out: % Growth Inhibition (GI %)
From the text: as §1

HOP-92 = test: NCI anticancer screening, Non-Small Cell Lung Cancer HOP-92; type: cell-based; conditions: Homo sapiens; HOP-92, 10 μM; read-out: % Growth Inhibition (GI %)
From the text: as §1

NCI-H460 = test: NCI anticancer screening, Non-Small Cell Lung Cancer NCI-H460; type: cell-based; conditions: Homo sapiens; NCI-H460, 10 μM; read-out: % Growth Inhibition (GI %)
From the text: as §1

SK-MEL-28 = test: NCI anticancer screening, Melanoma SK-MEL-28; type: cell-based; conditions: Homo sapiens; SK-MEL-28, 10 μM; read-out: % Growth Inhibition (GI %)
From the text: as §1

CAKI-1 = test: NCI anticancer screening, Renal Cancer CAKI-1; type: cell-based; conditions: Homo sapiens; CAKI-1, 10 μM; read-out: % Growth Inhibition (GI %)
From the text: as §1

SR = test: NCI anticancer screening, Leukemia SR; type: cell-based; conditions: Homo sapiens, read-out: % Growth Inhibition (GI %)
From the text: as §1

BT-549 = test: NCI anticancer screening, Breast Cancer BT-549; type: cell-based; conditions: Homo sapiens; BT-549, 10 μM; read-out: % Growth Inhibition (GI %)
From the text: as §1

SNB-19 = test: NCI anticancer screening, CNS Cancer SNB-19; type: cell-based; conditions: Homo sapiens; SNB-19, 10 μM; read-out: % Growth Inhibition (GI %)
From the text: as §1

MDA-MB-435 = test: NCI anticancer screening, Melanoma MDA-MB-435; type: cell-based; conditions: Homo sapiens; MDA-MB-435, 10 μM; read-out: % Growth Inhibition (GI %)
From the text: as §1

ACHN = test: NCI anticancer screening, Renal Cancer ACHN; type: cell-based; conditions: Homo sapiens, read-out: % Growth Inhibition (GI %)
From the text: as §1

786-0 = test: NCI anticancer screening, Renal Cancer 786-0; type: cell-based; conditions: Homo sapiens; 786-0, 10 μM; read-out: % Growth Inhibition (GI %)
From the text: as §1

MALME-3M = test: NCI anticancer screening, Melanoma MALME-3M; type: cell-based; conditions: Homo sapiens, read-out: % Growth Inhibition (GI %)
From the text: as §1

EKVX = test: NCI anticancer screening, Non-Small Cell Lung Cancer EKVX; type: cell-based; conditions: Homo sapiens, read-out: % Growth Inhibition (GI %)
From the text: as §1

DU-145 = test: NCI anticancer screening, DU-145; type: cell-based; conditions: Homo sapiens; DU-145, 10 μM; read-out: % Growth Inhibition (GI %)
From the text: as §1

IGROV1 = test: NCI anticancer screening, Ovarian Cancer IGROV1; type: cell-based; conditions: Homo sapiens, IGROV-1; IGROV1, 10 μM; read-out: % Growth Inhibition (GI %)
From the text: as §1

OVCAR-8 = test: NCI anticancer screening, Ovarian Cancer OVCAR-8; type: cell-based; conditions: Homo sapiens; OVCAR-8, 10 μM; read-out: % Growth Inhibition (GI %)
From the text: as §1

MDA-MB 231 cells = conditions: for inhibition: 5 µM
Experimental: Anticancer effect of the above-mentioned compounds was assayed using three human cancer cell lines. Triple negative breast cancer cell line (MDA-MB 231) and prostate cancer cell line (PC3) were cultured in DMEM (Lonza, USA) supplemented with 10% FBS. All cancer cells (4x10^3 cells/well) were seeded in sterile 96-well plates. After 24h, serial concentrations of the tested compounds were incubated with three cancer cell lines for 72 h at 37 °C in 5% CO2 incubator. […] The half maximal inhibitory concentration (IC50) values were calculated using the Graphpad Instat software.

RPMI-8226 = test: NCI anticancer screening, Leukemia RPMI-8226; type: cell-based; conditions: Homo sapiens; RPMI-8226, 10 μM; read-out: % Growth Inhibition (GI %)
From the text: as §1

SW-620 = test: NCI anticancer screening, Colon Cancer SW-620; type: cell-based; conditions: Homo sapiens; SW-620, 10 μM; read-out: % Growth Inhibition (GI %)
From the text: as §1

HCT-116 = test: NCI anticancer screening, Colon Cancer HCT-116; type: cell-based; conditions: Homo sapiens; HCT-116, 10 μM; read-out: % Growth Inhibition (GI %)
From the text: as §1

NCI/ADR-RES = test: NCI anticancer screening, Ovarian Cancer NCI/ADR-RES; type: cell-based; conditions: Homo sapiens, read-out: % Growth Inhibition (GI %)
From the text: as §1

OVCAR-5 = test: NCI anticancer screening, Ovarian Cancer OVCAR-5; type: cell-based; conditions: Homo sapiens; OVCAR-5, 10 μM; read-out: % Growth Inhibition (GI %)
From the text: as §1

TK-10 = test: NCI anticancer screening, Renal Cancer TK-10; type: cell-based; conditions: Homo sapiens; TK-10, 10 μM; read-out: % Growth Inhibition (GI %)
From the text: as §1

SK-MEL-2 = test: NCI anticancer screening, Melanoma SK-MEL-2; type: cell-based; conditions: Homo sapiens; SK-MEL-2, 10 μM; read-out: % Growth Inhibition (GI %)
From the text: as §1

K-562 = test: NCI anticancer screening, Leukemia K-562; type: cell-based; conditions: Homo sapiens, K562; K-562, 10 μM; read-out: % Growth Inhibition (GI %)
From the text: as §1

M14 = test: NCI anticancer screening, Melanoma M14; type: cell-based; conditions: Homo sapiens; M14, 10 μM; read-out: % Growth Inhibition (GI %)
From the text: as §1

RXF 393 = test: NCI anticancer screening, Renal Cancer RXF 393; type: cell-based; conditions: Homo sapiens; RXF 393, 10 μM; read-out: % Growth Inhibition (GI %)
From the text: as §1

Row | Structure (SMILES) | inhibition at 10 µM (SF-268) [%] | inhibition at 10 µM (CCRF-CEM) [%] | inhibition at 5 µM (PC-3 cells) [%] | inhibition at 10 µM (UACC-257) [%] | inhibition at 10 µM (MOLT-4) [%] | inhibition at 10 µM (HCC-2998) [%] | inhibition at 10 µM (SNB-75) [%] | inhibition at 10 µM (HOP-62) [%] | inhibition at 10 µM (OVCAR-4) [%] | inhibition at 10 µM (UO-31) [%] | inhibition at 10 µM (HOP-92) [%] | inhibition at 10 µM (NCI-H460) [%] | inhibition at 10 µM (SK-MEL-28) [%] | inhibition at 10 µM (CAKI-1) [%] | inhibition at 10 µM (SR) [%] | inhibition at 10 µM (BT-549) [%] | inhibition at 10 µM (SNB-19) [%] | inhibition at 10 µM (MDA-MB-435) [%] | inhibition at 10 µM (ACHN) [%] | inhibition at 10 µM (786-0) [%] | also measured
1 | O=C(c1nc2ccccc2[nH]1)[C@H]1[C@H](c2ccccc2)C2CSCN2[C@]12C(=O)Nc1ccccc12 (mixture of isomers) [Compound 6a, (3S,6′R)-6'-(1H-benzo [d]imidazole-2-carbonyl)-7′-phenyl-3′,6′,7′,7a′-tetrahydro-1′H-spiro [indoline-3.5′-pyrrolo [1,2-c]thiazol]-2-one] | 98.1 | 111 | > 50 | 97.3 | 100 | 109 | 79.8 | 99.3 | 108 | 77.2 | 95.5 | 106 | 103 | 86 | 94.2 | 102 | 97 | 103 | 99.5 | 102 | inhibition at 10 µM (MALME-3M): 101%; inhibition at 10 µM (EKVX): 106%; inhibition at 10 µM (DU-145): 115%; inhibition at 10 µM (IGROV1): 91.4%; inhibition at 10 µM (OVCAR-8): 96.1%; IC50 (MDA-MB 231 cells): 2.97 ± 0.047 µM; inhibition (MDA-MB 231 cells): 55.5 ± 0.761%; inhibition at 10 µM (RPMI-8226): 111%; inhibition at 10 µM (SW-620): 97.8%; inhibition at 10 µM (HCT-116): 106%; inhibition at 10 µM (NCI/ADR-RES): 105%; inhibition at 10 µM (OVCAR-5): 104%; inhibition at 10 µM (TK-10): 110%; inhibition at 10 µM (SK-MEL-2): 101%; inhibition at 10 µM (K-562): 105%; inhibition at 10 µM (M14): 107%; inhibition at 10 µM (RXF 393): 101%
2 | O=C(c1nc2ccccc2[nH]1)[C@H]1[C@H](c2ccc(F)cc2)C2CSCN2[C@]12C(=O)Nc1ccccc12 (stereo partly drawn) [Compound 6f, (3S,6′R)-6'-(1H-Benzo [d]imidazole-2-carbonyl)-7'-(4-fluorophenyl)-3′,6′,7′,7a′-tetrahydro-1′H-spiro [indoline-3.5′-pyrrolo [1,2-c]thiazol]-2-one] | 96.3 | 98.2 | 46 ± 0.833 | 83.9 | 83.6 | 97 | 89.8 | 104 | 83.2 | 77 | 112 | 88.9 | 102 | 90 | 81.3 | 97.4 | 95.9 | 94.6 | 94.2 | 99 | inhibition at 10 µM (MALME-3M): 94.2%; inhibition at 10 µM (EKVX): 93.8%; inhibition at 10 µM (DU-145): 111%; inhibition at 10 µM (IGROV1): 93.2%; inhibition at 10 µM (OVCAR-8): 94.7%; IC50 (MDA-MB 231 cells): 4.41 ± 0.448 µM; inhibition (MDA-MB 231 cells): 44.9 ± 3.59%; inhibition at 10 µM (RPMI-8226): 87.8%; inhibition at 10 µM (SW-620): 91.1%; inhibition at 10 µM (HCT-116): 92.9%; inhibition at 10 µM (NCI/ADR-RES): 99.4%; inhibition at 10 µM (OVCAR-5): 100%; inhibition at 10 µM (TK-10): 101%; inhibition at 10 µM (SK-MEL-2): 102%; inhibition at 10 µM (K-562): 87.4%; inhibition at 10 µM (M14): 94.5%; inhibition at 10 µM (RXF 393): 99.6%
